{
  "source": "paper PMC9822133",
  "about": "“Design, Synthesis and Antiproliferative Evaluation of Bis-Indole Derivatives with a Phenyl Linker: Focus on Autophagy” (Molecules, 2022)",
  "key": {"MCF-7": {"tested_on": "MCF-7", "assay": "MTT screening assay, MCF-7", "assay_type": "cell-based", "details": "Homo sapiens, MCF7, 72 h incubation", "description": "(§1) The ability of newly synthesized indole phytoalexins to suppress cell proliferation was screened in vitro on eight cancer cell lines including human colorectal carcinoma (Caco-2 and HCT116), human cervical cancer (HeLa), human breast adenocarcinoma (MCF-7, MDA-MB-231), human alveolar adenocarcinoma (A549) and human leukemic T cell lymphoma (Jurkat), and two non-cancer cell lines (MCF-10A, Cos-7).\n(§2) The cell lines used for this study were Caco-2 (human colorectal adenocarcinoma cell line, American Type Culture Collection, Manassas, VA, USA (ATCC)), HCT116 (human colorectal carcinoma cells European Collection of Authenticated Cell Cultures, Salisbury, UK (ECACC)), HeLa (human cervical tumor cells, ECACC), MCF-7 (human breast tumor cells, ECACC), MDA-MB-231 (human breast tumor cells, ATCC), A549 (human lung carcinoma cells, ATCC), BLM (human melanoma lung metastases, a gift from prof. K. Smetana, Institute of Anatomy, Charles University in Prague), Jurkat (human leukemia cell line, ECACC), Cos-7 (immortalized monkey kidney fibroblasts, ATCC) and MCF-10A (human mammary epithelial cells, ATCC). Caco-2, MCF-7, BLM, Cos-7 and A549 cells were cultured in Dulbecco’s Modified Eagle’s Medium (DMEM) with high glucose and sodium pyruvate (GE Healthcare, Piscataway, NJ, USA); HCT116 lines, HeLa, MDA-MB-231 and Jurkat were cultured in RPMI-1640 medium; and MCF10A cells were cultured in high glucose DMEM/F12 (Dulbecco’s Modified Eagle’s Medium F12). The media were enriched with 10% fetal bovine serum (FBS) and a 1% solution of a mixture of antibiotics and antimycotics 1× HyClone™ (GE Healthcare, Chicago, IL, USA). DMEM/F12 medium was supplemented with epidermal growth factor (EGF) (20 ng/mL final), hydrocortisone (0.5 μg/mL final) and insulin (10 μg/mL final) (Sigma-Aldrich Chemie, Steinheim, Germany). The cells were placed in an incubator at 37 °C with humidified air containing 5% CO2.\n(§3) The MTT assay is a colorimetric method used to quantify the metabolic activity of cells. MTT (3-(4,5-di-methylthiazol-2-yl)2,5-diphenyltetrazolium bromide) (Sigma-Aldrich Chemie, Steinheim, Germany) is reduced by oxidoreductases in the cytosol of cells to light-absorbing formazan, the presence of which can be measured spectrophotometrically and determines the half-maximal inhibitory concentration (IC50). A549 cells were seeded in 95-well culture plates at a density of 5 × 10^3 per well. […]\n(§4) We also incubated the cells with chloroquine at concentrations of 5–20 µM, which was added 1 h before the addition of the test substance, and cisplatin at concentrations of 3–10 µM. […] After 24 h, the absorbance was measured at a wavelength of 540 nm using an automated Cytation™ 3 Cell Imaging Multi-Mode Reader (Biotek, Winooski, VT, USA). […]"}, "Jurkat": {"tested_on": "Jurkat", "assay": "MTT screening assay, Jurkat", "assay_type": "cell-based", "details": "Homo sapiens, 72 h incubation", "description": "as §1, §2, §3, §4"}, "Beclin-1": {"tested_on": "Beclin-1", "assay": "Western blot, Beclin-1", "assay_type": "cell-based, human", "details": "A549, all time periods, most significantly after 24 h", "description": "Beclin-1 plays a key role in the autophagy process, which is activated in cells during periods of stress. It ensures the recruitment of autophagosomal proteins to the pre-autophagosomal structure (PAS) and is part of a complex that is essential for the induction of autophagy (VSP34 complex). It also interacts with proteins from the Bcl-2 family, by which it can be inactivated or cleaved by caspases. This is considered a crosstalk between autophagy and apoptosis. […] There is no mention in the literature focusing on Beclin-1 (and even autophagy) and indole phytoalexins. However, another phytoalexin, resveratrol, has been described to stimulate autophagy in oral cancer cells. […] Later, Fan et al. confirmed the ability of resveratrol to induce autophagy associated with upregulation of Beclin-1 also in lung cancer A549 cells.\nA549 cells were seeded on Petri dishes (55 cm^2) at a density of 1 × 10^6 and allowed to culture in the medium. After 24 h, the test substance was added, and the cells were incubated for 24, 48 and 72 h. […] After lysis, the cells were sonicated, and the protein concentration in the samples was quantified using the Pierce® BCA Protein Assay Kit (Thermo Scientific, Rockford, IL, USA) and measured by an automated Cytation™ 3 Cell Imaging Multi-Mode Reader (Biotek) at a wavelength of 570 nm. […]"}, "[1]": {"tested_on": "A549 human lung cancer cells", "assay": "MTT assay with cis-platin alone or combined with compound 49", "assay_type": "cell-based", "details": "A549, CisPt 10 μM + compound 49 20 μM", "description": "Furthermore, the depletion of GSH has been documented to potentiate the effect of anticancer drugs. Glutathione plays an important role in cisPt detoxification, so depletion of GSH is believed to potentiate the cisPt-induced DNA damage and increase the chemosensitivity of cancer cells to this anticancer drug. Due to the GSH-depleting effect of compound 49, we performed a set of experiments with cis-platin (CisPt) alone or in combination with compound 49 (Figure 9). […] Simultaneous treatments with CisPt (10 μM) and 20 μM of compound 49 caused a 59% reduction in cell growth.\nas §3, with “(IC50).” for “(IC50). A549 cells were seeded in 95-well culture plates at a density of 5 × 10^3 per well.”\nas §4"}},
  "data": [
    {"smiles": "CC(C)(C)OC(=O)n1cc(CNC(=O)Nc2ccc(NC(=O)NCc3cn(C(=O)OC(C)(C)C)c4ccccc34)cc2)c2ccccc21", "note": "[Compound 49, N,N′-(1,4-phenylene)bis{N′-[1-(tert-butoxycarbonyl)indol-3-yl]methyl (urea)}]", "values": [
      {"measurement": "IC50", "setting": "MCF-7", "result": "> 100", "unit": "µM"},
      {"measurement": "IC50", "setting": "Jurkat", "result": "98.8 ± 1.7", "unit": "µM"},
      {"measurement": "Beclin-1 expression", "setting": "Beclin-1", "result": "significantly upregulated"},
      {"measurement": "reduction in cell growth, combination", "setting": "[1]", "result": 59, "unit": "%"}
    ]}
  ]
}
